The results in this text go back to ChEMBL document CHEMBL4834424, “Targeting Chikungunya Virus Replication by Benzoannulene Inhibitors” (J Med Chem, 2021).

Data set [1] in a line: Metabolic stability in mouse liver microsomes assessed as half life in presence of NADPH incubated up to 45 mins by LC-MS/MS analysis. Also noted: unit not given here. The format is ADME, Microsome. To be noted: for half-life: liver microsomes. (Liver microsomes are vesicles of endoplasmic reticulum, rich in cytochrome P450 enzymes.)
Data set [2] concerns Chikungunya virus. The data set can be described thus: Antiviral activity against CHIKV infected in human NHDF cells assessed as reduction in virus titer in cell supernatant by measuring inhibition of plaque formation using Vero cells at 10 uM pretreated with NHDF cells followed by infected with virus incubated for 24 hrs and measured following infection of supernatants with Vero cells for 48 hrs by plaque based methylene blue dye analysis. In kind it is functional. To be noted: time 72 hrs.

Data set [3] in a line: Aqueous solubility of the compound. In kind it is physicochemical.
A short description of data set [4]: Metabolic stability in human liver microsomes assessed as half life in presence of NADPH incubated up to 45 mins by LC-MS/MS analysis. The format is ADME, Microsome.
Data set [5] concerns Chikungunya virus. Put plainly: Antiviral activity against CHIKV infected in human NHDF cells assessed as reduction in virus titer in cell supernatant by measuring inhibition of plaque formation using Vero cells pretreated with NHDF cells followed by infected with virus incubated for 24 hrs and measured following infection of supernatants with Vero cells for 48 hrs by plaque based methylene blue dye analysis. In kind it is functional, organism-based.

A short description of data set [6]: Cytotoxicity against human NHDF cells assessed as cell viability measured after 24 hrs by Cell Titer Glo luminescent assay. The format is cell-based. To be noted: NHDF cells.
Data set [7] is described as follows: Octanol-aqueous buffer distribution coefficient, log D of the compound by LC-MS analysis. In kind it is physicochemical.

In general, solubility refers to the concentration that dissolves in the medium under given conditions. In general, EC50 refers to the concentration that produces a half-maximal response. Usually CC50 stands for the concentration that lowers cell viability or growth by half. One may read the logD as lipophilicity at a set pH, counting ionised and neutral species.

The structures appear in SMILES notation. In brackets after ≈: the same amount, converted by molar mass. Some results are limits rather than exact numbers.

For `COc1cc2c(cc1NC(=O)c1ccc(C(C)(C)O)cc1)CCCCC2`, the half-life in data set [1] is 1140; in data set [4], 254 h. In the data set with Chikungunya virus [2], the “log(activity)” value turned out to be 1.6. The solubility in data set [3] (aqueous, read-out: solubility) was 8 µM (≈ 2.83 µg/mL). For the same molecule, the EC50 in the data set with Chikungunya virus [5] came out at 2.45 µM. Besides, the CC50 at 24 h in data set [6] is greater than 30 µM. Moreover, the logD in data set [7] was 4.
On to `COc1cc2c(cc1NC(=O)c1ccc(C(C)(C)C)cc1)CCCC(=O)N2`, for which the “log(activity)” value in the data set with Chikungunya virus [2] is given as less than 1. Besides, the CC50 at 24 h in data set [6] is greater than 30 µM.
On to `CCc1cc2c(cc1C(=O)Nc1ccc(C(C)(C)C)cc1)CCCCC2`, for which the “log(activity)” value with Chikungunya virus [2] came to 0.2. The CC50 at 24 h in data set [6] was greater than 30 µM.
Regarding `COc1cc2c(cc1NC(=O)c1ccc(C(C)(C)C)cc1)CCCC(=O)N2C(C)C`, the “log(activity)” value with Chikungunya virus [2] amounted to 1.7. In addition, the EC50 in the data set with Chikungunya virus [5] was determined as 5.1 µM. In addition, in data set [6], the half-maximal cytotoxic concentration (CC50) at 24 h was greater than 30 µM.
For `CC(C)(C)c1ccc(C(=O)Nc2cc3c(cc2C#N)CCCCC3)cc1`, the figures for the half-life in data set [1] and in data set [4] were 1860 and 76 h, respectively. The “log(activity)” value in the data set with Chikungunya virus [2] was 1.8. Moreover, in data set [3] (aqueous, read-out: solubility), the solubility is less than 1 µM. Moreover, the EC50 in the data set with Chikungunya virus [5] was 4.4 µM. Further, the CC50 at 24 h in data set [6] is greater than 30 µM. Moreover, the logD in data set [7] turned out to be 5.
`CC(C)(C)c1ccc(C(=O)Nc2cc3c(cc2OCc2ccccn2)CCC3)cc1`: in the data set with Chikungunya virus [2], the “log(activity)” value was 1.2. The EC50 in the data set with Chikungunya virus [5] worked out at 9 µM. Also, the CC50 at 24 h in data set [6] is greater than 30 µM.
With `CC(C)(C)c1ccc(C(=O)Nc2cc3c(cc2OC(F)(F)F)CCCCC3)cc1`, in data set [1] (microsomes, 0.75 h), the t1/2 was 127. The solubility in data set [3] (buffer) turned out to be 8 µM (≈ 3.24 µg/mL). Further, the EC50 in the data set with Chikungunya virus [5] was 3.7 µM. Besides, in data set [6], the CC50 at 24 h was greater than 30 µM. Moreover, the logD in data set [7] was found to be 5.
On to `COc1cc2c(cc1C(=O)Nc1ccc(-c3cc[nH]n3)cc1)CCCCC2`, for which, in the data set on Chikungunya virus [2], the “log(activity)” value was determined as 5.9. The EC50 with Chikungunya virus [5] stood at 3.4 µM. In addition, the CC50 at 24 h in data set [6] was greater than 30 µM.
In the case of `COc1cc2c(cc1NC(=O)c1ccc(C(C)(C)C(F)(F)F)cc1)CCCCC2`, the half-life in data set [1] was 2100; in data set [4], 106 h. Further, in the data set with Chikungunya virus [2], the “log(activity)” value turned out to be 1.8. Besides, the solubility in data set [3] (aqueous, read-out: solubility) was less than 1 µM. The EC50 in the data set with Chikungunya virus [5] is 3.47 µM. Besides, the CC50 at 24 h in data set [6] was greater than 30 µM. The logD in data set [7] came out at 6.
`CCCOc1cc2c(cc1NC(=O)c1ccc(C(C)(C)C)cc1)CCCCC2`: the “log(activity)” value with Chikungunya virus [2] was 1. Moreover, in the data set with Chikungunya virus [5], the EC50 was 7.05 µM. The CC50 at 24 h in data set [6] is greater than 30 µM.
Regarding `CC(C)(C)c1ccc(C(=O)Nc2cc3c(cc2C(F)(F)F)CCCCC3)cc1`, in the data set on Chikungunya virus [2], the “log(activity)” value was 0. In data set [6], the CC50 at 24 h is greater than 30 µM.
For `COc1cc2c(nc1NC(=O)c1ccc(C(C)(C)C)cc1)CCCC2`, in that order: 1.3 and greater than 30 µM.
Turning to `COc1cc2c(cc1NC(=O)c1ccc(C(C)(C)C#N)cc1)CCCCC2`, the half-life in data set [1] was 720; in data set [4], 51 h. Besides, the “log(activity)” value in the data set on Chikungunya virus [2] was 1.7. In addition, the solubility in data set [3] (aqueous, read-out: solubility) came to 35 µM (≈ 12.7 µg/mL). For the same molecule, the EC50 with Chikungunya virus [5] worked out at 1.6 µM. Besides, in data set [6], the CC50 at 24 h is greater than 30 µM. In addition, the logD in data set [7] stood at 4.
Take `[2H]C([2H])([2H])Oc1cc2c(cc1NC(=O)c1ccc(C(C)(C)C)cc1)CCCCC2`: the “log(activity)” value in the data set with Chikungunya virus [2] amounted to 23. Further, the solubility in data set [3] (aqueous, read-out: solubility) was 28 µM (≈ 9.93 µg/mL). In addition, the half-life in data set [4] is 31 h. The EC50 in the data set with Chikungunya virus [5] worked out at 1 µM. Moreover, the CC50 at 24 h in data set [6] was greater than 30 µM. The same molecule came in with a logD in data set [7] of 3.
Take `COc1cc2c(cc1NC(=O)c1ccc(C(C)(C)CO)cc1)CCCCC2`: the “log(activity)” value in the data set on Chikungunya virus [2] amounted to 3.1. The EC50 in the data set with Chikungunya virus [5] is 7.12 µM. For the same molecule, the 50% cytotoxic concentration (CC50) at 24 h in data set [6] is greater than 30 µM.
Regarding `COc1nc2c(cc1C(=O)Nc1ccc(C(C)(C)C)cc1)CCCCC2`, the half-life in data set [1] was 2700; in data set [4], 102 h. The “log(activity)” value in the data set with Chikungunya virus [2] is reported as 1.3. In addition, the solubility in data set [3] (aqueous, read-out: solubility) was 1.8 µM (≈ 0.634 µg/mL). In data set [6], the CC50 at 24 h was greater than 30 µM. For the same molecule, the logD in data set [7] was 4.6.
Turning to `CC(C)(C)c1ccc(C(=O)Nc2cc3c(cc2N)CCCCC3)cc1`, the “log(activity)” value in the data set with Chikungunya virus [2] was 0. In addition, in data set [6], the CC50 at 24 h is greater than 30 µM.
As to `CC(=O)Oc1cc2c(cc1NC(=O)c1ccc(C(C)(C)C)cc1)CCCCC2`, in the data set with Chikungunya virus [2], the “log(activity)” value is recorded as 52. In addition, the solubility in data set [3] (aqueous, read-out: solubility) is less than 1 µM. Further, the half-life in data set [4] was 7 h. In the data set on Chikungunya virus [5], the EC50 is 2.8 µM. Further, the CC50 at 24 h in data set [6] was greater than 30 µM. The logD in data set [7] was 5.
Turning to `CC(C)(C)c1ccc(NC(=O)c2cc3c(cc2OC(F)F)CCCCC3)cc1`, the half-life in data set [1] was 660; in data set [4], 70 h. In addition, the “log(activity)” value with Chikungunya virus [2] is 1.4. For the same molecule, in data set [6], the CC50 at 24 h is greater than 30 µM. The molecule also yielded a logD in data set [7] of 5.
`COc1cc2c(cc1NC(=O)c1ccc(C(C)(C)C)cc1)CCCCN2`: the “log(activity)” value in the data set on Chikungunya virus [2] turned out to be 3.9. For the same molecule, in the data set with Chikungunya virus [5], the EC50 was found to be 3.3 µM. Also, the CC50 at 24 h in data set [6] is greater than 30 µM.
For `COc1cc2c(cc1NC(=O)c1ccc(C(C)(C)C)cc1)CCC2`, the “log(activity)” value in the data set on Chikungunya virus [2] is on record as less than 1. The CC50 at 24 h in data set [6] was greater than 30 µM.
`CC(C)(C)c1ccc(C(=O)Nc2cc3c(cc2OCc2ccccn2)CCCC3)cc1`: in the data set on Chikungunya virus [2], the “log(activity)” value was found to be 1.1. Also, in the data set with Chikungunya virus [5], the EC50 came out at 9.1 µM. The CC50 at 24 h in data set [6] is greater than 30 µM.
For the molecule `CCOc1cc2c(cc1NC(=O)c1ccc(C(C)(C)C)cc1)CCC2`, the “log(activity)” value in the data set with Chikungunya virus [2] was found to be 1. For the same molecule, the EC50 in the data set on Chikungunya virus [5] was found to be 6.23 µM. Further, in data set [6], the CC50 at 24 h was greater than 30 µM.
The corresponding values for `CCOc1cc2c(cc1C(=O)Nc1ccc(C(C)(C)C)cc1)CCCCC2` are 1.5, 3.8 µM and greater than 30 µM.
For the molecule `CC(C)(C)c1ccc(C(=O)Nc2cc3c(cc2CO)CCCCC3)cc1`, the half-life was 1320 in data set [1] and 64 h in data set [4]. Also, the “log(activity)” value in the data set on Chikungunya virus [2] is recorded as less than 1. In addition, the solubility in data set [3] (aqueous, read-out: solubility) is less than 1 µM. Besides, the CC50 at 24 h in data set [6] is greater than 30 µM. Also, the logD in data set [7] is 4.
On to `CC(C)(C)c1ccc(C(=O)Nc2cc3c(cc2[N+](=O)[O-])CCCCC3)cc1`, for which the “log(activity)” value with Chikungunya virus [2] came out at 0. The CC50 at 24 h in data set [6] was greater than 30 µM.
Regarding `COc1nc2c(cc1NC(=O)c1ccc(C(C)(C)C)cc1)CCCC2`, the “log(activity)” value with Chikungunya virus [2] is 6.7. Besides, the EC50 with Chikungunya virus [5] was found to be 2.3 µM. Moreover, in data set [6], the CC50 at 24 h was greater than 30 µM.
Turning to `COc1cc2c(nc1NC(=O)c1ccc(C(C)(C)C)cc1)CCCCC2`, the “log(activity)” value in the data set with Chikungunya virus [2] came out at 3.18. The EC50 with Chikungunya virus [5] came to 0.59 µM. For the same molecule, in data set [6], the CC50 at 24 h is greater than 30 µM.
For the molecule `COCCOc1cc2c(cc1NC(=O)c1ccc(C(C)(C)C)cc1)CCCCC2`, the “log(activity)” value with Chikungunya virus [2] was found to be 0. The CC50 at 24 h in data set [6] is greater than 30 µM.
As for `COc1cc2c(cc1NC(=O)c1ccc(C3(O)CCC3)cc1)CCCCC2`, the “log(activity)” value in the data set on Chikungunya virus [2] is listed as less than 1. Further, in data set [6], the CC50 at 24 h was greater than 30 µM.
Turning to `COc1cc2c(cc1NC(=O)c1ccc(C(C)(C)C)cc1)CCCCN2C`, the “log(activity)” value with Chikungunya virus [2] was less than 1. Moreover, in data set [6], the CC50 at 24 h is greater than 30 µM.
In the case of `COc1nc2c(cc1C(=O)Nc1ccc(C(C)(C)C)cn1)CCCCC2`, the half-life in data set [1] was 3960; in data set [4], 88 h. Further, the “log(activity)” value with Chikungunya virus [2] is reported as 0.27. In data set [3] (aqueous, read-out: solubility), the solubility was less than 1 µM. Besides, the CC50 at 24 h in data set [6] is greater than 30 µM. The logD in data set [7] was greater than 4.7.
For the molecule `CCOc1cc2c(cc1NC(=O)c1ccc(C(C)(C)C)cc1)CCCCC2`, in the data set with Chikungunya virus [2], the “log(activity)” value is reported as 2.2. The EC50 in the data set on Chikungunya virus [5] is 5.19 µM. Also, in data set [6], the CC50 at 24 h is greater than 30 µM.
